Results on 16 compounds are retold here after ChEMBL document CHEMBL5244218, “Quinolone derivatives and their activities against methicillin-resistant Staphylococcus aureus (MRSA)” (Eur J Med Chem, 2018).

≈ marks a conversion by molar mass, not a printed value.

For data set [1], the system named is Staphylococcus aureus. The data set is described as follows: Antimicrobial activity against methicillin-resistant Staphylococcus aureus Mi300 by microbroth dilution method. In kind it is functional.
Data set [2] relates to Staphylococcus aureus. The data set is described as follows: Antimicrobial activity against methicillin-resistant Staphylococcus aureus Mi339 by microbroth dilution method. The format is functional.
Data set [3] is described as follows: Permeability coefficient of compound. The format is ADME. As to conditions: not told; read-out: Kp (converted).
The test system of data set [4] is Staphylococcus aureus. The data set is described as follows: Antimicrobial activity against methicillin-resistant Staphylococcus aureus assessed as inhibition of microbial growth at 15.63 ug/ml relative to control. The format is functional. Also on record: scale not given: the % may be the effect or the level left. As to conditions: dose 15.63 µg/ml.
The test system of data set [5] is Staphylococcus aureus. The data set is described as follows: Antimicrobial activity against methicillin-resistant Staphylococcus aureus assessed as inhibition of bacterial growth by agar dilution method. The format is functional.
Data set [6] concerns Staphylococcus aureus. The data set is described as follows: Antimicrobial activity against methicillin-resistant Staphylococcus aureus MR101 Mu50 measured after 18 hrs by microplate dilution method. In kind it is functional.
The test system of data set [7] is Staphylococcus aureus. The data set is described as follows: Antibacterial activity against methicillin-resistant Staphylococcus aureus infected in mouse model assessed as reduction in log10CFU in lungs (reference value: 8.47 log10CFU). In kind it is functional.
The subject of data set [8] is Staphylococcus aureus. The data set is described as follows: Antibacterial activity against methicillin-resistant Staphylococcus aureus infected in mouse model assessed as increase in survival rate relative to control. The format is functional.
Data set [9] relates to Staphylococcus aureus. The data set is described as follows: Antimicrobial activity against methicillin-resistant Staphylococcus aureus assessed as inhibition of bacterial growth at 0.5 ug/ml relative to control. The format is functional. Also noted: scale not given: the % may be the effect or the level left. As to conditions: dose 0.5 µg/ml.
The test system of data set [10] is Staphylococcus aureus. The data set is described as follows: Antimicrobial activity against fluoroquinolone-resistant Staphylococcus aureus assessed as inhibition of bacterial growth at 0.5 ug/ml relative to control. In kind it is functional. Also on record: scale not given: the % may be the effect or the level left. As to conditions: dose 0.5 µg/ml.
In data set [11] the test system is Staphylococcus aureus. The data set is described as follows: Potency index, ratio of ciprofloxacin MIC to test compound MIC for antimicrobial activity against methicillin-resistant Staphylococcus aureus. In kind it is functional.
Data set [12] concerns Staphylococcus aureus. The data set is described as follows: Antimicrobial activity against methicillin-resistant Staphylococcus aureus assessed as inhibition of microbial growth. The format is functional.
Data set [13] relates to Staphylococcus aureus. The data set is described as follows: Antimicrobial activity against methicillin-resistant Staphylococcus aureus. In kind it is functional, organism-based.
Data set [14] concerns Staphylococcus aureus. The data set is described as follows: Antimicrobial activity against methicillin-resistant Staphylococcus aureus incubated for 18 hrs by Alamar blue staining based analysis. In kind it is functional.
Data set [15] concerns Staphylococcus aureus. The data set is described as follows: Bactericidal activity against methicillin-resistant Staphylococcus aureus assessed as inhibition of microbial growth. In kind it is functional.
In data set [16] the test system is Staphylococcus aureus. The data set is described as follows: Antibacterial activity against methicillin-resistant Staphylococcus aureus assessed as inhibition of microbial growth. In kind it is functional.
The nature of data set [17]: Cytotoxicity against African green monkey Vero cells. The format is toxicity, cell-based. As to conditions: chlorocebus sabaeus.
Data set [18] concerns Staphylococcus aureus. The data set is described as follows: Antimicrobial activity against community acquired methicillin-resistant Staphylococcus aureus incubated for 24 hrs by CLSI protocol based method. In kind it is functional.
Data set [19] relates to Staphylococcus aureus. The data set is described as follows: Antimicrobial activity against hospital acquired methicillin-resistant Staphylococcus aureus incubated for 24 hrs by CLSI protocol based method. In kind it is functional.

Consider `C[C@@H](O)[C@H]1C(=O)N2C(C(=O)O)=C(COC(=O)N[C@H]3CCC(c4c(F)cc5c(=O)c(C(=O)O)cn(C6CC6)c5c4F)C3)S[C@H]12` (some centres not stated), for which the MIC in the data set on Staphylococcus aureus [1] was at most 0.06 µg/mL; against Staphylococcus aureus [2], 4 µg/mL (≈ 6.46 µM).

For `COC(=O)c1cn(C2CC2)c2cc(N3CCNCC3)ccc2c1=O`, the Papp in [3] was 0.00797 ×10⁻⁶ cm/s. The Activity with Staphylococcus aureus [4] was 80%.

`C[C@H]1CCc2c(N3CCC(O)CC3)c(F)cc3c(=O)c(C(=O)O)cn1c23.N=C(N)NCCC[C@H](N)C(=O)O.O.O.O.O`: in the data set with Staphylococcus aureus [5], the minimum inhibitory concentration (MIC) turned out to be 1 µg/mL.

Regarding `CCOC(=O)c1cn(C2CC2)c2cc(N3CCNCC3)ccc2c1=O`, the Papp in data set [3] is 0.106 ×10⁻⁶ cm/s. In addition, the Activity with Staphylococcus aureus [4] was found to be 80%.

`CC(=O)N[C@@H]1[C@H](Oc2c3cc4cc2Oc2ccc(cc2Cl)[C@@H](O[C@@H]2O[C@@H](CO)[C@@H](O)[C@H](O)[C@@H]2NC(C)=O)[C@@H]2NC(=O)[C@H](NC(=O)[C@@H]4NC(=O)[C@H]4NC(=O)[C@@H](Cc5ccc(c(Cl)c5)O3)NC(=O)[C@H](N)c3ccc(O)c(c3)Oc3cc(O)cc4c3)c3ccc(O)c(c3)-c3c(O[C@H]4O[C@H](CO)[C@@H](O)[C@@H](O)[C@@H]4O)cc(O)cc3[C@@H](C(=O)O)NC2=O)O[C@@H](CO)[C@@H](O)[C@@H]1O` returned an MIC against Staphylococcus aureus [6] of 0.5 µg/mL (≈ 0.283 µM). The Activity in the data set with Staphylococcus aureus [7] is 7.36 log10CFU; in the data set on Staphylococcus aureus [8] it was 45%.

Take `COc1c(N2CC[C@@H](C3(C)CC3)C2)c(F)cc2c(=O)c(C(=O)O)cn([C@@H]3C[C@@H]3F)c12`: the Activity in the data set on Staphylococcus aureus [9] and with Staphylococcus aureus [10] was 90% each time.

Take `O=C(O)c1cn(C2CC2)c2c(c1=O)C=C(F)C1N=NC(c3ccccc3F)=CN21` (configuration not stated): in the data set with Staphylococcus aureus [11], the Ratio came to 32. The MIC in the data set with Staphylococcus aureus [12] amounted to 0.25 µg/mL.

`O=C(O)c1cn(C2CC2)c2c(c1=O)C=C(F)C1N=NC(c3ccc(F)cc3)=CN21` (configuration not stated): the Ratio in the data set on Staphylococcus aureus [11] is on record as 32. In addition, in the data set on Staphylococcus aureus [12], the MIC was 0.25 µg/mL.

On to `O=C(O)c1cn(C2CC2)c2cc(N3CCNCC3)c(F)cc2c1=O` [CIPROFLOXACIN], for which the MIC stood at 0.5 µg/mL (≈ 1.51 µM) in the data set with Staphylococcus aureus [13]; 64 µg/mL (≈ 193 µM) against Staphylococcus aureus [14]; 0.25 µg/mL (≈ 0.754 µM) against Staphylococcus aureus [1]; 32 µg/mL (≈ 96.6 µM) with Staphylococcus aureus [2]; 0.06 µg/mL in the data set with Staphylococcus aureus [16]. Further, in the data set with Staphylococcus aureus [15], the minimum bactericidal concentration (MBC) came out at 0.031 µg/mL.

In turn, `Cc1c(N2C[C@@H](F)[C@@H](C3(C)CC3)C2)c(F)c(N)c2c(=O)c(C(=O)O)cn([C@@H]3C[C@@H]3F)c12` returned an MIC against Staphylococcus aureus [6] of 0.125 µg/mL (≈ 0.287 µM). Further, the Activity in the data set on Staphylococcus aureus [7] is on record as 6.33 log10CFU; in the data set on Staphylococcus aureus [8], 90%.

Compound `CO/N=C1\CCN(c2nc3c(cc2F)c(=O)c(C(=O)O)cn3C2CC2)CC1(C)CN` (configuration not stated) showed a minimal inhibitory concentration (MIC) in the data set on Staphylococcus aureus [13] of 8 µg/mL (≈ 19.2 µM). Also, it took 177 µg/mL (≈ 423 µM) to reach half-maximal cytotoxicity in data set [17] (CC50).

Take `Cc1c(N2CC(NC(C)C)C2)c(F)cc2c(=O)c(C(=O)O)cn(-c3nc(N)c(F)cc3F)c12`: the MIC90 in the data set with Staphylococcus aureus [18] and in the data set on Staphylococcus aureus [19] was 0.06 µg/mL (≈ 0.13 µM) throughout.

`O=C(O)c1cn(C2CC2)c2cc(N3CCN(Cc4cccc(CN5CCN(c6ncc7c(=O)c(C(=O)O)cn(C8CC8)c7n6)CC5)c4)CC3)ccc2c1=O` yielded an MIC against Staphylococcus aureus [13] of under 0.03 µg/mL. Moreover, the Ratio in the data set on Staphylococcus aureus [11] is recorded as over 16.

In the case of `CN[C@H](CC(C)C)C(=O)N[C@H]1C(=O)N[C@@H](CC(N)=O)C(=O)N[C@H]2C(=O)N[C@H]3C(=O)N[C@H](C(=O)N[C@H](C(=O)O)c4cc(O)cc(O)c4-c4cc3ccc4O)[C@H](O)c3ccc(c(Cl)c3)Oc3cc2cc(c3O[C@@H]2O[C@H](CO)[C@@H](O)[C@H](O)[C@H]2O[C@H]2C[C@](C)(N)[C@H](O)[C@H](C)O2)Oc2ccc(cc2Cl)[C@H]1O` [VANCOMYCIN], the Activity in the data set with Staphylococcus aureus [7] is given as 7.99 log10CFU; in the data set on Staphylococcus aureus [8] it was 45%.

For `CCCOC(=O)c1cn(C2CC2)c2cc(N3CCNCC3)ccc2c1=O`, in [3], the Papp is 0.195 ×10⁻⁶ cm/s. Besides, the Activity in the data set with Staphylococcus aureus [4] came out at 80%.

Regarding `C[C@@H](O)[C@H]1C(=O)N2C(C(=O)O)=C(COC(=O)N3CCN(c4cc5c(cc4F)c(=O)c(C(=O)O)cn5C4CC4)CC3)S[C@H]12`, the MIC with Staphylococcus aureus [1] and with Staphylococcus aureus [2] was 0.06 µg/mL (≈ 0.0996 µM) throughout.

As usually defined, the MIC is the smallest concentration in the dilution series that meets the test's criterion for growth inhibition. What is called MBC is the smallest concentration meeting the test's criterion for killing. In general, CC50 refers to the concentration at which the toxic effect on the cells reaches its halfway point. As usually defined, the MIC90 is an inhibitory concentration at the 90% level, which refers to growth in some studies and to a panel of isolates in others.
